Laboratory results published in ChEMBL document CHEMBL1158448, “Synthesis and antinociceptive activity of pyrazolyl isoxazolines and pyrazolyl isoxazoles” (2009).

Columns and labels:
[1] = test system: Mus musculus; experiment: Antinociceptive activity in Swiss albino mouse assessed as protection against acetic acid-induced abdominal constriction at 30 mg/kg, po measured for 10 mins after 5 mins of acetic acid challenge relative to control; type: functional, Abdomen
[2] = test system: Rattus norvegicus; experiment: Antinociceptive activity in Wistar albino rat assessed as latency in reaction time required for thermal stimulus-induced tail flicking at 15 mg/kg, po after 180 mins by analgesiometric analysis (RVb=3.16 +/- 0.16 seconds); type: functional
[3] = test system: Rattus norvegicus; experiment: Antinociceptive activity in Wistar albino rat assessed as latency in reaction time required for thermal stimulus-induced tail flicking at 30 mg/kg, po after 180 mins by analgesiometric analysis (RVb=3.16 +/- 0.16 seconds); type: functional
[4] = test system: Rattus norvegicus; experiment: Antinociceptive activity in Wistar albino rat assessed as latency in reaction time required for thermal stimulus-induced tail flicking at 30 mg/kg, po after 30 mins by analgesiometric analysis (RVb=3.33 +/- 0.21 seconds); type: functional
[5] = test system: Rattus norvegicus; experiment: Antinociceptive activity in Wistar albino rat assessed as latency in reaction time required for thermal stimulus-induced tail flicking at 30 mg/kg, po after 120 mins by analgesiometric analysis (RVb=3.33 +/- 0.21 seconds); type: functional
[6] = test system: Rattus norvegicus; experiment: Antinociceptive activity in Wistar albino rat assessed as latency in reaction time required for thermal stimulus-induced tail flicking at 15 mg/kg, po after 60 mins by analgesiometric analysis (RVb=3.16 +/- 0.16 seconds); type: functional
[7] = test system: Mus musculus; experiment: Antinociceptive activity in Swiss albino mouse assessed as protection against acetic acid-induced abdominal constriction at 15 mg/kg, po measured for 10 mins after 5 mins of acetic acid challenge relative to control; type: functional, Abdomen
[8] = test system: Rattus norvegicus; experiment: Antinociceptive activity in Wistar albino rat assessed as latency in reaction time required for thermal stimulus-induced tail flicking at 15 mg/kg, po after 120 mins by analgesiometric analysis (RVb=3.33 +/- 0.21 seconds); type: functional
[9] = test system: Rattus norvegicus; experiment: Antinociceptive activity in Wistar albino rat assessed as latency in reaction time required for thermal stimulus-induced tail flicking at 30 mg/kg, po after 60 mins by analgesiometric analysis (RVb=3.16 +/- 0.16 seconds); type: functional
[10] = test system: Rattus norvegicus; experiment: Antinociceptive activity in Wistar albino rat assessed as latency in reaction time required for thermal stimulus-induced tail flicking at 15 mg/kg, po after 30 mins by analgesiometric analysis (RVb=3.33 +/- 0.21 seconds); type: functional
[11] = test system: Rattus norvegicus; experiment: Antinociceptive activity in Wistar albino rat assessed as latency in reaction time required for thermal stimulus-induced tail flicking at 5 mg/kg, po after 30 mins by analgesiometric analysis (RVb=3.33 +/- 0.21 seconds); type: functional
[12] = test system: Rattus norvegicus; experiment: Antinociceptive activity in Wistar albino rat assessed as latency in reaction time required for thermal stimulus-induced tail flicking at 5 mg/kg, po after 120 mins by analgesiometric analysis (RVb=3.33 +/- 0.21 seconds); type: functional
[13] = test system: Rattus norvegicus; experiment: Antinociceptive activity in Wistar albino rat assessed as latency in reaction time required for thermal stimulus-induced tail flicking at 5 mg/kg, po after 60 mins by analgesiometric analysis (RVb=3.16 +/- 0.16 seconds); type: functional
[14] = test system: Rattus norvegicus; experiment: Antinociceptive activity in Wistar albino rat assessed as latency in reaction time required for thermal stimulus-induced tail flicking at 5 mg/kg, po after 180 mins by analgesiometric analysis (RVb=3.16 +/- 0.16 seconds); type: functional
[15] = test system: Mus musculus; experiment: Antinociceptive activity in Swiss albino mouse assessed as protection against acetic acid-induced abdominal constriction at 100 mg/kg, po measured for 10 mins after 5 mins of acetic acid challenge relative to control; type: functional, Abdomen

Row | Compound | Activity [1] [%] | Activity [2] [s] | Activity [3] [s] | Activity [4] [s] | Activity [5] [s] | Activity [6] [s] | Activity [7] [%] | Activity [8] [s] | Activity [9] [s] | Activity [10] [s] | Activity [11] [s] | Activity [12] [s] | Activity [13] [s] | Activity [14] [s] | Activity [15] [%]
1 | COc1ccc(-c2nn(-c3ccccc3)cc2-c2cc(-c3ccccc3)on2)cc1 | 30.99 | 3.5 | 5.33 | 3.33 | 5.83 | 4.16 | 11.77 | 4 | 6 | 3.16 |  |  |  |  | 
2 | CN1C(=O)C2ON=C(c3cn(-c4ccccc4)nc3-c3ccccc3)C2C1=O (stereo not given) | 30.58 | 3.33 | 4.83 | 3.33 | 5 | 3.5 | 1.17 | 3.5 | 5.16 | 3.16 |  |  |  |  | 
3 | CN1C(=O)C2ON=C(c3cn(-c4ccccc4)nc3-c3ccc(Cl)cc3)C2C1=O (stereo not given) | 23.15 | 3.66 | 5.5 | 3.33 | 6.5 | 4 | 7.84 | 3.83 | 6.66 | 3.16 |  |  |  |  | 
4 | CCOC(=O)c1onc(-c2cn(-c3ccccc3)nc2-c2ccc(Cl)cc2)c1C(=O)OCC | 55.29 | 4 | 7.5 | 3.83 | 8.33 | 4.33 | 17.27 | 4.16 | 8.66 | 3.33 |  |  |  |  | 
5 | CCOC(=O)c1onc(-c2cn(-c3ccccc3)nc2-c2ccc(Br)cc2)c1C(=O)OCC | 56.87 | 3.5 | 7.5 | 3.33 | 8 | 4 | 12.94 | 3.83 | 8.16 | 3.33 |  |  |  |  | 
6 | CN1C(=O)C2ON=C(c3cn(-c4ccccc4)nc3-c3ccc(Br)cc3)C2C1=O (stereo not given) | 40.4 | 3.33 | 6.5 | 3.33 | 7 | 3.83 | 9.81 | 3.83 | 7.16 | 3.16 |  |  |  |  | 
7 | O=C1C2ON=C(c3cn(-c4ccccc4)nc3-c3ccc(Cl)cc3)C2C(=O)N1c1ccccc1 (stereo not given) | 43.15 | 3.66 | 5.5 | 3.33 | 6 | 4.16 | 23.93 | 4 | 6.16 | 3.33 |  |  |  |  | 
8 | Cc1ccc(N2C(=O)C3ON=C(c4cn(-c5ccccc5)nc4-c4ccc(Cl)cc4)C3C2=O)cc1 (stereo not given) | 42.75 | 3.33 | 4.5 | 3.33 | 5.16 | 3.66 | 22.75 | 3.33 | 5.33 | 3.33 |  |  |  |  | 
9 | O=C1C2ON=C(c3cn(-c4ccccc4)nc3-c3ccccc3)C2C(=O)N1c1ccccc1 (stereo not given) | 47.39 | 3.33 | 5.66 | 3.33 | 6.66 | 3.5 | 30.58 | 3.33 | 6.83 | 3.16 |  |  |  |  | 
10 | CCOc1ccc(-c2nn(-c3ccccc3)cc2C2=NOC3C(=O)N(c4ccccc4)C(=O)C23)cc1 (stereo not given) | 49.51 | 3.5 | 5.83 | 3.16 | 6.16 | 3.16 | 12.16 | 3.5 | 6.83 | 3.16 |  |  |  |  | 
11 | CCOC(=O)c1onc(-c2cn(-c3ccccc3)nc2-c2ccc(OC)cc2)c1C(=O)OCC | 57.65 | 4 | 7 | 3.83 | 7.66 | 5 | 11.39 | 4.33 | 7.83 | 3.33 |  |  |  |  | 
12 | CCCCc1cc(-c2cn(-c3ccccc3)nc2-c2ccc(Cl)cc2)no1 | 47.09 | 3.33 | 6.16 | 3.33 | 6.6 | 3.66 | 12.56 | 3.5 | 6.83 | 3.16 |  |  |  |  | 
13 | O=C1C2ON=C(c3cn(-c4ccccc4)nc3-c3ccc(Br)cc3)C2C(=O)N1c1ccccc1 (stereo not given) | 49.04 | 3.33 | 6.5 | 3.16 | 6.83 | 3.66 | 2.75 | 3.66 | 7 | 3.16 |  |  |  |  | 
14 | Brc1ccc(-c2nn(-c3ccccc3)cc2-c2cc(-c3ccccc3)on2)cc1 | 31.39 | 3.5 | 5.16 | 3.33 | 5.66 | 3.23 | 14.52 | 3.66 | 5.83 | 3.16 |  |  |  |  | 
15 | CCOc1ccc(-c2nn(-c3ccccc3)cc2C2=NOC3C(=O)N(C)C(=O)C23)cc1 (stereo not given) | 47.46 | 3.5 | 5.83 | 3.83 | 6 | 4 | 22.75 | 3.83 | 6.16 | 3.16 |  |  |  |  | 
16 | Clc1ccc(-c2nn(-c3ccccc3)cc2-c2cc(-c3ccccc3)on2)cc1 | 49.04 | 3.83 | 6.16 | 3.83 | 6.6 | 4.16 | 1.58 | 4 | 6.83 | 3.16 |  |  |  |  | 
17 | CC(C)=CCN1CC[C@]2(C)c3cc(O)ccc3C[C@H]1[C@H]2C [(+)-PENTAZOCINE] |  |  |  |  |  |  |  |  |  |  | 9.16 | 9.3 | 9.33 | 8 | 
18 | CC(=O)Oc1ccccc1C(=O)O [ASPIRIN] |  |  |  |  |  |  |  |  |  |  |  |  |  |  | 62.35
